# Values of other authors as cited in patent US12133844B2, “Methods of treating epithelioid cell tumors” (Abraxis BioScience, LLC, priority 2015, dated 2024).
# Read-outs that look alike come from different tables or passages of the source.
# Key:
# [1] = biological target: T1, mTORC1 (Homo sapiens, UniProt P42345); design: endogenous in cells; settings: HEK293 cells, 0.2 μM-5 μM
# [2] = biological target: T1, mTORC1; design: endogenous in cells; host or cells: HUVEC; settings: HUVEC cells, 10 nM-1 μM
# [3] = tested on: human plasma proteins
# [4] = biological target: HSA (Homo sapiens, UniProt P02768)
# [5] = in vivo
# [6] = tested on: ABCB1/ABCG2
# [7] = biological target: T1, mTORC1; design: endogenous in cells; host or cells: HUVEC
# HSA, sequence (P02768 25-609): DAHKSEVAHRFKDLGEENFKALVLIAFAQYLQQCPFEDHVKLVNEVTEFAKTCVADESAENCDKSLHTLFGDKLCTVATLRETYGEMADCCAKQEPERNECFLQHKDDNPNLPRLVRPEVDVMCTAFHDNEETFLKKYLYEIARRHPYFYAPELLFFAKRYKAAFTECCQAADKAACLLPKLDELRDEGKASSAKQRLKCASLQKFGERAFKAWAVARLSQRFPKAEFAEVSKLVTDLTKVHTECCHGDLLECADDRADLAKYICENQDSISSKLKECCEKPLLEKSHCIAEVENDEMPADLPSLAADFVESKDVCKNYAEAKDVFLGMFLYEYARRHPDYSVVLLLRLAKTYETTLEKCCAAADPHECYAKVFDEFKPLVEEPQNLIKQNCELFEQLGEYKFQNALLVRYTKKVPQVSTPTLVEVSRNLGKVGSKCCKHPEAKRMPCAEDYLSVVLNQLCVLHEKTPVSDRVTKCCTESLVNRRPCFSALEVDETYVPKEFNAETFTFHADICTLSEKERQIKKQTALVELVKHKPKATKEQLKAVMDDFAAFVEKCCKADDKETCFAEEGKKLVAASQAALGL
molecule,measurement,setting,value
WYE-354,inhibition of mTORC1,[1],inhibits mTORC1
same,inhibition of mTORC1,[2],inhibits mTORC1
CC(=O)O[C@@]12CO[C@@H]1C[C@H](O)[C@@]1(C)C(=O)[C@H](O)C3=C(C)[C@@H](OC(=O)[C@H](O)[C@@H](NC(=O)OC(C)(C)C)c4ccccc4)C[C@@](O)([C@@H](OC(=O)c4ccccc4)[C@H]21)C3(C)C [docetaxel],binding to human plasma proteins,[3],shown to bind
"CO[C@H]1C[C@@H]2CC[C@@H](C)[C@@](O)(O2)C(=O)C(=O)N2CCCC[C@H]2C(=O)O[C@H]([C@H](C)C[C@@H]2CC[C@@H](O)[C@H](OC)C2)CC(=O)[C@H](C)/C=C(\C)[C@@H](O)[C@@H](OC)C(=O)[C@H](C)C[C@H](C)/C=C/C=C/C=C/1C [Sirolimus, sirolimus]",binding to HSA,[4],shown to bind HSA
COc1ccc(COc2cc3oc(=O)c4cc(C(C)O)ccc4c3cc2OC)cc1 (stereo not shown) [Palomid 529],brain penetration,[5],good brain penetration
same,affinity for ABCB1/ABCG2,[6],lacks affinity
COc1ccc(-c2ccc3c(N4CCOCC4)nc(N4C[C@@H](C)O[C@@H](C)C4)nc3n2)cc1CO [KU-0063794],inhibition of phosphorylation of mTORC1 at Ser2448,[7],dose-dependent and time-dependent
